Source: patent US20100331722A1, “Device and method for assessing operant facial pain” (priority 2004, published 2010)
Entries after “also recorded” stand apart in the source; their conditions may differ.

Tested on: orofacial inflammatory pain
Experiment: thermal operant orofacial pain test after carrageenan-induced orofacial inflammation
Assay type: in vivo, Male Sprague Dawley rats
Protocol: General. Male Sprague Dawley rats (200-300 g, N=18) were lightly anesthetized using isoflurane (1-2.5%, inhalation) and their hair was bilaterally removed (FIG. 1) from the orofacial region using clippers, followed by depilatory cream 1 day prior to behavioral testing. Excess cream was removed with a moistened paper towel to minimize skin irritation. Rats were food fasted for 12-15 hours prior to each testing session and following each session were provided with standard food chow. Animals were tested at the same time of the day and a recovery day from the fasting was included between the testing sessions to minimize nutritional differences from their normal food routine. Water was made available ad libitum before and after testing sessions and animal weight was recorded daily. The animals were then brought into the behavioral procedure room 1 hour prior to testing and allowed to acclimate to the temperature and ambient noise of the room. Animal testing procedures and general handling complied with the ethical guidelines and standards established by the Institutional Animal Care and Use Committee at the University of Florida and all procedures complied with the Guide for Care and Use of Laboratory Animals (Council, 1996).
Thermal Testing. A testing cage (20.3 cm W×20.3 cm D×16.2 cm H) with acrylic walls was constructed with an opening in one wall (4×6 cm) which was lined with grounded metal (aluminum) tubing. The tubing served as a thermode when connected to a water pump (Model RTE110B, NES Laboratories, Inc.) via flexible polyethylene tubing through which heated water (range: 37.7-57.2° C.) was circulated (FIGS. 2A and 2B). A standard rodent watering bottle containing a diluted (1:2 with water) sweetened condensed milk solution (Nestle Carnation Company, room temperature) was mounted outside the cage. The circulating water pump was activated and the appropriate temperature was set prior to testing the animals. The room temperature was maintained at 22±1° C. for all behavioral tests.
Unrestrained animals were placed separately in a testing cage, and the data acquisition system was activated (WinDaq Lite Data Acq DI-194, DATAQ Instruments, Inc). The bottle was then positioned in proximity to the cage such that the animal was allowed access to the reward bottle when simultaneously contacting the thermode with its face. The metal spout on the watering bottle was connected to a 13-volt DC power supply and, in series, to a multi-channel data acquisition module (WinDaq Lite Data Acq DI-194, DATAQ Instruments, Inc.). When the rat drank from the water bottle, the skin on its shaved face contacted the grounded thermode, and the animal's tongue contacted the metal spout on the water bottle, completing an electrical circuit (FIG. 2A). The bottle position was adjusted horizontally and vertically to facilitate contact of the thermode within the same shaved area of the face for each animal (FIG. 2B). The closed circuit was registered in the computer and data were collected at 60 Hz for the entire length of the experiment. Each spout contact was recorded as a ‘licking’ event. A separate circuit was established from the metal thermode to the animal by grounding the floor with an aluminum sheet for recording of ‘facial contact’ events (FIG. 3). The latter circuit was necessary to determine if the animal made an attempt at the reward bottle but was discouraged by the temperature of the thermode. The duration of each facial contact and the total number of events (licking, facial contact) were recorded. The investigator monitored online data acquisition to ensure that each recorded licking event from the first circuit corresponded to a recorded facial contact on the tubing (the second circuit). […]

[1] = one animal, retested 30 minutes after morphine 0.5 mg/kg s.c., post-inflammation

| Compound | effect of carrageenan inflammation on operant outcome measures (carrageenan 6 mg s.c. mid-cheek bilaterally, tested 3 hours post-inflammation at 45.5° C., all measures except facial contact events (FIG. 6)) | effect on inflammatory hyperalgesia (operant outcome measures) (morphine 0.5 mg/kg s.c. 30 minutes prior to testing, 2.5 hours post-carrageenan, 45.5° C., N=6) | operant outcome measures of morphine-treated inflamed animals versus normal animals (morphine-treated animals tested at 45.5° C., all measures except facial contact events) | intake (post-morphine) (one animal, retested 30 minutes after morphine 0.5 mg/kg s.c., given after the 3 hours post-inflammation trial, 30-minute operant trial) [g] | facial contact duration (post-morphine) [1] [s] | facial contacts (post-morphine) [1] | licking events (post-morphine) [1] | ratio facial duration/facial contact (post-morphine) [1] | ratio licking/contact events (post-morphine) [1] | operant responses after morphine, pain indices (FIG. 7) (single animal, repeated testing following carrageenan, before and after morphine) |
| --- | --- | --- | --- | --- | --- | --- | --- | --- | --- | --- |
| carrageenan | significant reduction | – | – | – | – | – | – | – | – | – |
| CN1CC[C@]23c4c5ccc(O)c4O[C@H]2[C@@H](O)C=C[C@H]3[C@H]1C5 [morphine] | – | all but one of these effects was completely reversed; also recorded: completely blocked | comparable to normal animals tested at 37.7 °C | 17.8 | 634 | 309 | 3582 | 2.05 | 11.6 | analgesic response |
